Measurements reported in ChEMBL document CHEMBL6127117, “Divergent Total Synthesis of Isoflavone Natural Products and Their Potential as Therapeutic Agents for TTR Amyloidosis” (J Nat Prod, 2024).
Active and inactive are the calls of the source. The rule behind the calls is not given here.

What was measured:
[1] = molecular target: Transthyretin (Homo sapiens) (UniProt P02766); assay: Binding affinity to TTR in human plasma assessed as stabilization of TTR tetramer by measuring fluorescence intensity measured after 6 hrs by absorbance based analysis; assay type: cell-free; conditions: dose 20-100 µM
[2] = tested on: Transthyretin (Homo sapiens), P02766 [V50M]; assay: Inhibition of acid mediated TTR V30M mutant (unknown origin) aggregation under pH 4.7 at 20 uM measured upto 6 days by thioflavin-T fluorescence assay; conditions: time <= 6.0 day
[3] = molecular target: Transthyretin (Homo sapiens) (UniProt P02766); assay: Binding affinity to TTR in human plasma assessed as stabilization of TTR tetramer by measuring fluorescence intensity at 50 uM measured after 6 hrs by absorbance based analysis relative to control; assay type: cell-free
[4] = molecular target: Transthyretin (Homo sapiens) (UniProt P02766); assay: Binding affinity to TTR in human plasma assessed as stabilization of TTR tetramer by measuring fluorescence intensity at 20 uM measured after 6 hrs by absorbance based analysis relative to control; assay type: cell-free
[5] = molecular target: Transthyretin (Homo sapiens) (UniProt P02766); assay: Binding affinity to TTR in human plasma assessed as stabilization of TTR tetramer by measuring fluorescence intensity at 100 uM measured after 6 hrs by absorbance based analysis relative to control; assay type: cell-free

Row | SMILES | Activity [1] | inhibition [2] | Activity [3] [%] | Activity [4] [%] | Activity [5] [%]
1 | CC(C)=CCc1cc(-c2coc3cc4c(c(O)c3c2=O)C=CC(C)(C)O4)ccc1O | Dose-Dependent Effect | inactive | – | – | –
2 | CC(C)=CCOc1ccc(-c2coc3c4c(cc(O)c3c2=O)OC(C)(C)C=C4)cc1 | Dose-Dependent Effect | inactive | – | – | –
3 | CC(C)=CCc1c2c(c(O)c3c(=O)c(-c4ccc(O)c(O)c4)coc13)C=CC(C)(C)O2 | Dose-Dependent Effect | Active | – | – | –
4 | CC1(C)C=Cc2c(cc3occ(-c4ccc(O)cc4)c(=O)c3c2O)O1 | Dose-Dependent Effect | Active | – | – | –
5 | C=CC(C)(C)c1cc(-c2coc3cc4c(c(O)c3c2=O)C=CC(C)(C)O4)ccc1O | Dose-Dependent Effect | inactive | – | – | –
6 | CC(C)=CCc1c2c(c3occ(-c4ccc(O)cc4O)c(=O)c3c1O)C=CC(C)(C)O2 | Dose-Dependent Effect | Active | 50 | 70 | 35
7 | CC(C)=CCOc1ccc(-c2coc3cc4c(c(O)c3c2=O)C=CC(C)(C)O4)cc1 | Dose-Dependent Effect | inactive | – | – | –
8 | CC(C)=CCc1cc(-c2coc3c4c(cc(O)c3c2=O)OC(C)(C)C=C4)ccc1O | Dose-Dependent Effect | inactive | – | – | –
9 | CC1(C)C=Cc2c(cc(O)c3c(=O)c(-c4ccc(O)cc4)coc23)O1 | Dose-Dependent Effect | Active | – | – | –
